Read-outs that look alike come from different tables or passages of the source.
Legend:
[1] = system: Beet Armyworm (Spodoptera exigua) ("BAW"), second instar larvae; test: Bioassay on beet armyworm (BAW), 128-well diet tray assay; assay type: in vivo; conditions: for pest or weed control at 50 µg/cm2: Spodoptera exigua; for BAW rating: Table ABC, species BAW, C = not tested, D = no activity noticed
Description: (§1) Certain molecules disclosed in this document were tested against BAW and CL using procedures described in the following examples. In the reporting of the results, the “BAW & CL Rating Table” was used (See Table Section).
(§2) Trays were covered with a clear self-adhesive cover and held at 25° C., 14:10 light-dark cycle for five to seven days. Percent mortality was recorded for the larvae in each well; activity in the eight wells was then averaged. The results are indicated in the table entitled “Table ABC: Biological Results” (See Table Section).

[2] = system: Cabbage Looper (Trichoplusia ni) ("CL"), second instar larvae; test: Bioassay on cabbage looper (CL), 128-well diet tray assay; assay type: in vivo; conditions: for pest or weed control at 50 µg/cm2: Trichoplusia ni; for CL rating: Table ABC, species CL, C = not tested, D = no activity noticed
Description: as §1, §2

[3] = read-out: BAW (Biological Results, rating)
[4] = read-out: CL (Biological Results, rating)

Which pest or weed control at 50 µg/cm2 ([1]; read-out: BAW rating) does the source give for `COC(C)c1ccc(C)cc1N1C(=O)CS/C1=N\C(=O)Nc1ccc(-c2nnc(-c3ccc(OC(F)(F)F)cc3)o2)cc1F` (stereo not drawn) [Compound J429, (Z)-1-(2-Fluoro-4-(5-(4-(trifluoromethoxy)phenyl)-1,3,4-oxadiazol-2-yl)phenyl)-3-(3-(2-(1-methoxyethyl)-5-methylphenyl)-4-oxothiazolidin-2-ylidene)urea] here?
Its pest or weed control at 50 µg/cm2 is 50 to 100%.

What about the pest or weed control at 50 µg/cm2 ([2]; read-out: CL rating) of the same molecule?
Its pest or weed control at 50 µg/cm2 is 50 to 100%.

With `Cc1ccc(COCC(F)(F)F)c(N2C(=O)CS/C2=N\C(=O)Nc2ccc(-c3ncn(-c4ccc(OC(F)(F)F)cn4)n3)cc2C)c1` [Compound J241, (Z)-1-(3-(5-Methyl-2-((2,2,2-trifluoroethoxy)methyl)phenyl)-4-oxothiazolidin-2-ylidene)-3-(2-methyl-4-(1-(5-(trifluoromethoxy)pyridin-2-yl)-1H-1,2,4-triazol-3-yl)phenyl)urea] as the molecule, how does the pest or weed control at 50 µg/cm2 [1, 3] read?
The pest or weed control at 50 µg/cm2 was 50 to 100%.

And the pest or weed control at 50 µg/cm2 [2, 4]?
Its pest or weed control at 50 µg/cm2 is 50 to 100%.

What does the source list for `Cc1ccc(COCc2ccc(F)cc2C(F)(F)F)c(N2C(=O)CS/C2=N\C(=O)Nc2ccc(-c3ncn(-c4ccc(OC(F)(F)F)cc4)n3)cc2F)c1` [Compound J621, (Z)-1-(3-(2-(((4-Fluoro-2-(trifluoromethyl)benzyl)oxy)methyl)-5-methylphenyl)-4-oxothiazolidin-2-ylidene)-3-(2-fluoro-4-(1-(4-(trifluoromethoxy)phenyl)-1H-1,2,4-triazol-3-yl)phenyl)urea]?
pest or weed control at 50 µg/cm2 ([1]; read-out: BAW rating): 50 to 100%; pest or weed control at 50 µg/cm2 ([2]; read-out: CL rating): 50 to 100%

For `CN(C)c1ccc(C(F)(F)F)c(N2C(=O)CS/C2=N\C(=O)Nc2ccc(-c3cn(-c4ccc(S(F)(F)(F)(F)F)cc4)cn3)cc2F)c1` [Compound J600, (Z)-1-(3-(5-(Dimethylamino)-2-(trifluoromethyl)phenyl)-4-oxothiazolidin-2-ylidene)-3-(2-fluoro-4-(1-(4-(pentafluoro-λ^6-sulfaneyl)phenyl)-1H-imidazol-4-yl)phenyl)urea], which pest or weed control at 50 µg/cm2 ([1]; read-out: BAW rating) is on record?
The pest or weed control at 50 µg/cm2 was 50 to 100%.

And the pest or weed control at 50 µg/cm2 ([2]; read-out: CL rating)?
The pest or weed control at 50 µg/cm2 was 50 to 100%.

Which results are given for `Cc1ccc(COCC(F)(F)F)c(N2C(=O)CS/C2=N\C(=O)Nc2ccc(-c3ncn(-c4ccc(OC(F)(F)F)cc4)n3)cc2C#N)c1` [Compound J245, (Z)-1-(2-Cyano-4-(1-(4-(trifluoromethoxy)phenyl)-1H-1,2,4-triazol-3-yl)phenyl)-3-(3-(5-methyl-2-((2,2,2-trifluoroethoxy)methyl)phenyl)-4-oxothiazolidin-2-ylidene)urea]?
pest or weed control at 50 µg/cm2 [1, 3]: 50 to 100%; pest or weed control at 50 µg/cm2 [2, 4]: 50 to 100%

How did the pest or weed control at 50 µg/cm2 [1, 3] turn out when `Cc1ccc(C(C)C)c(N2C(=O)CS/C2=N\C(=O)Nc2ccc(-c3ncn(-c4ccc(C(F)(F)F)cn4)n3)cc2Cl)c1` [Compound J295, (Z)-1-(2-Chloro-4-(1-(5-(trifluoromethyl)pyridin-2-yl)-1H-1,2,4-triazol-3-yl)phenyl)-3-(3-(2-isopropyl-5-methylphenyl)-4-oxothiazolidin-2-ylidene)urea] was run?
Its pest or weed control at 50 µg/cm2 is 50 to 100%.

And the pest or weed control at 50 µg/cm2 [2, 4]?
The pest or weed control at 50 µg/cm2 was 50 to 100%.

`Cc1ccc(COCCF)c(N2C(=O)CS/C2=N\C(=O)Nc2ccc(-c3ncn(-c4ccc(S(F)(F)(F)(F)F)cc4)n3)cc2C)c1` [Compound J557] was tested. Which BAW rating [1] did it give?
Its BAW rating is “A (50-100)”.

What about the CL rating [2] of the same molecule?
The CL rating was “A (50-100)”.

Which BAW rating [1] does the source give for `CCCOCc1ccc(C)cc1N1C(=O)CS/C1=N\C(=O)Nc1ccc(-c2ncn(-c3ccc(S(F)(F)(F)(F)F)cc3)n2)cc1F` [Compound J544] here?
The BAW rating was “A (50-100)”.

And the CL rating [2]?
Its CL rating is “A (50-100)”.

With `CN(C)c1ccc(C(F)(F)F)c(N2C(=O)CS/C2=N\C(=O)Nc2ccc(-c3ncn(-c4ccc(OC(F)(F)F)cc4)n3)cc2F)c1` [Compound J182, (Z)-1-(3-(5-(Dimethylamino)-2-(trifluoromethyl)phenyl)-4-oxothiazolidin-2-ylidene)-3-(2-fluoro-4-(1-(4-(trifluoromethoxy)phenyl)-1H-1,2,4-triazol-3-yl)phenyl)urea] as the molecule, how does the pest or weed control at 50 µg/cm2 [1, 3] read?
The pest or weed control at 50 µg/cm2 was 50 to 100%.

What about the pest or weed control at 50 µg/cm2 [2, 4] of the same molecule?
Its pest or weed control at 50 µg/cm2 is 50 to 100%.
